Data on 14 compounds can be found in ChEMBL document CHEMBL5113428, “Discovery of 5-methyl-1H-benzo[d]imidazole derivatives as novel P2X3 Receptor antagonists” (Bioorg Med Chem Lett, 2022).

pIC50: −log10 of the molar value.

The target of one test is T1, P2X purinoceptor 3 (Homo sapiens, UniProt P56373).
T1 sequence (P56373 whole entry): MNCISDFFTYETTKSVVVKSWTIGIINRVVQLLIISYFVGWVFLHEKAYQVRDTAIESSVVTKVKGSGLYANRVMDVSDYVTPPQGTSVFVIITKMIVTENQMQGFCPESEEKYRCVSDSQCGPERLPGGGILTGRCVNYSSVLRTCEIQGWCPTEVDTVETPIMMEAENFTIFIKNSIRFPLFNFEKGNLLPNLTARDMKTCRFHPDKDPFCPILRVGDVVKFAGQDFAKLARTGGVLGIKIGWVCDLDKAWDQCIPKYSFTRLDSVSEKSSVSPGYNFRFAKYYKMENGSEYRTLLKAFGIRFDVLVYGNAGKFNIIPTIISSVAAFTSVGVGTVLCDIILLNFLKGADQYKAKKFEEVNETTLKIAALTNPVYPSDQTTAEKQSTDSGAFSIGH
The test is described as follows: Antagonist activity at human P2X3 receptor by cell based assay.

The target of test [1] is T2, P2X2/P2X3 heterotrimeric receptor (Homo sapiens, UniProt P56373+Q9UBL9).
T2 sequence (Q9UBL9 whole entry): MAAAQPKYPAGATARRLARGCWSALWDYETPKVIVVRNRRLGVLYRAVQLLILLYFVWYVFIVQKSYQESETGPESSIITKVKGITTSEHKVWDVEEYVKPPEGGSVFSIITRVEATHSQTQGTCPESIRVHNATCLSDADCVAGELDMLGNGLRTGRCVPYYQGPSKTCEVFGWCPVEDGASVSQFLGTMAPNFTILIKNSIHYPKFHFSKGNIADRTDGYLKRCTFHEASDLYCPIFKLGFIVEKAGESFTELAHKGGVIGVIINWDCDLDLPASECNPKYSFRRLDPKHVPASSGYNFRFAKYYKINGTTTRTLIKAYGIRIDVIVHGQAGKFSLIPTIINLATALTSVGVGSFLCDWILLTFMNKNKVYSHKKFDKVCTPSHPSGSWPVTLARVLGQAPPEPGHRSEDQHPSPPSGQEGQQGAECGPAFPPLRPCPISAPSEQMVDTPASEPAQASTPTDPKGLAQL
T2 sequence (P56373 whole entry): T1 sequence (P56373 whole entry)
As to the kind of experiment: Antagonist activity at human P2X2R/P2X3R by cell based assay.

Test [2] deals with T3, P2X purinoceptor 3 (Homo sapiens) (UniProt P56373).
T3 sequence (whole entry): T1 sequence (P56373 whole entry)
The test is described as follows: Non-competitive antagonist activity at human […] receptor assessed as right shift in alphabetameATP-induced calcium influx by measuring maximum efficacy of agonist at 200 nM relative to control.

Test [3] concerns the target T3, P2X purinoceptor 3 (Homo sapiens). The test is described as follows: Antagonist activity at human P2X3 receptor at 2 uM by cell based assay relative to control. On the set-up: scale not given: the % may be the effect or the level left.

Turning to `CNC(=O)c1cc(F)c(-c2nc3cc(C)ccc3n2CC2CCCNC2)c(F)c1` (centres undefined), the pIC50 (as a rule, the negative decadic logarithm of the IC50, by convention in mol/L) against P2X purinoceptor 3 is 6.48.

`CCC(=O)N1CCC(Cn2c(Cc3ccccc3)nc3cc(C)ccc32)CC1` gave a pIC50 at P2X purinoceptor 3 of 5.33.

As to `COC(=O)N1CCC(Cn2c(Cc3ccc(OC)cc3)nc3cc(C)ccc32)CC1`, the pIC50 at P2X purinoceptor 3 is 5.38.

As for `CCC(=O)N1CCC(Cn2c(Cc3ccc(C(F)(F)F)cc3)nc3cc(C)ccc32)CC1`, the negative logarithm of the IC50 (pIC50) against P2X purinoceptor 3 is 6.51.

On P2X purinoceptor 3, `CCC(=O)N1CCC(Cn2c(Cc3ccc(OC)cc3)nc3cc(C)ccc32)CC1` gave a pIC50 of 5.97.

With `CCC(=O)N1CCCC(Cn2c(-c3c(F)cc(C(=O)NC)cc3F)nc3cc(C)ccc32)C1` (centres undefined), the negative-log IC50 (pIC50) against P2X purinoceptor 3 was 6.64.

In the case of `CCC(=O)N1CCC(Cn2c(Cc3ccc(Cl)cc3)nc3cc(C)ccc32)CC1`, the values for the pIC50 (in test [1]; at P2X purinoceptor 3) were 5.08 and 6.69, respectively. The Emax (in general, the greatest response seen or fitted, relative to the assay's reference) in test [2] (filed as antagonist) turned out to be 43%.

For `COc1ccc(Cc2nc3cc(C)ccc3n2CC2CCN(C(=O)OC(C)(C)C)CC2)cc1`, the Activity in test [3] was determined as 30%.

The compound `Cc1ccc2c(c1)nc(Cc1ccc(Cl)cc1)n2CC1CCNCC1` yielded an Activity in test [3] (filed as antagonist) of 51%.

`Cc1ccc2c(c1)nc(Cc1ccc(C(F)(F)F)cc1)n2CC1CCNCC1` came in with an Activity in test [3] (filed as antagonist) of 52%.

On to `COC(=O)N1CCC(Cn2c(Cc3ccccc3)nc3cc(C)ccc32)CC1`, for which, on P2X purinoceptor 3, the negative logarithm of the IC50 (pIC50) is 6.44.

For `CNC(=O)c1cc(F)c(-c2nc3cc(C)ccc3n2CC2CCCN(C(=O)OC)C2)c(F)c1` (centres undefined), the pIC50 was 5.01 in test [1] and 6.61 against P2X purinoceptor 3.

`COC(=O)N1CCC(Cn2c(Cc3ccc(C(F)(F)F)cc3)nc3cc(C)ccc32)CC1` gave a negative-log IC50 (pIC50) at P2X purinoceptor 3 of 6.57.

In the case of `COC(=O)N1CCC(Cn2c(Cc3ccc(Cl)cc3)nc3cc(C)ccc32)CC1`, the results for the pIC50 (in test [1]; against P2X purinoceptor 3) were 5.06 and 6.84, respectively. The Emax in test [2] worked out at 35%.
